# In PubChem BioAssay AID1919002 (Molecular Pharmacology Branch, DTP, NCI, 2023):
# “And” between values parts separate entries of the source, which are not always exact repeats. Equal values may be shown once.
# System: 743489-274-T-PDC complex spheroid growth
# Experiment: Anticancer human tumor 743489-274-T-PDC patient-derived renal cell carcinoma cell line growth inhibition [AhR]
# Details: for viability, T/C: stronger effect = lower value
# Procedure, shortened: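 Spheroids combined tumor cells with HUVEC endothelial cells and human MSCs as stroma. AhR antagonists were paired with standard or investigational drugs, each dosed in half-log steps down from near clinical Cmax, or from 10 microM where Cmax was unknown.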
# [1] = curve of first compound, second compound 0.1 µM
# [2] = curve of first compound, second compound 0.316 µM
# [3] = curve of first compound, second compound 1 µM
# [4] = curve of first compound, second compound 3.16 µM
# [5] = curve of first compound, second compound 10 µM
# [6] = second compound 0.1 µM, first compound 0.0316 µM
# [7] = second compound 0.1 µM, first compound 0.1 µM
# [8] = second compound 0.1 µM, first compound 0.316 µM
# [9] = second compound 0.1 µM, first compound 1 µM
# [10] = second compound 0.1 µM, first compound 3.16 µM
# [11] = second compound 0.1 µM, first compound 10 µM
# [12] = second compound 0.316 µM, first compound 0.0316 µM
# [13] = second compound 0.316 µM, first compound 0.1 µM
# [14] = second compound 0.316 µM, first compound 0.316 µM
# [15] = second compound 0.316 µM, first compound 1 µM
# [16] = second compound 0.316 µM, first compound 3.16 µM
# [17] = second compound 0.316 µM, first compound 10 µM
# [18] = second compound 1 µM, first compound 0.0316 µM
# [19] = second compound 1 µM, first compound 0.1 µM
# [20] = second compound 1 µM, first compound 0.316 µM
# [21] = second compound 1 µM, first compound 1 µM
# [22] = second compound 1 µM, first compound 3.16 µM
# [23] = second compound 1 µM, first compound 10 µM
# [24] = second compound 3.16 µM, first compound 0.0316 µM
# [25] = second compound 3.16 µM, first compound 0.1 µM
# [26] = second compound 3.16 µM, first compound 0.316 µM
# [27] = second compound 3.16 µM, first compound 1 µM
# [28] = second compound 3.16 µM, first compound 3.16 µM
# [29] = second compound 3.16 µM, first compound 10 µM
# [30] = second compound 10 µM, first compound 0.0316 µM
# [31] = second compound 10 µM, first compound 0.1 µM
# [32] = second compound 10 µM, first compound 0.316 µM
# [33] = second compound 10 µM, first compound 1 µM
# [34] = second compound 10 µM, first compound 3.16 µM
# [35] = second compound 10 µM, first compound 10 µM
# 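Further: spheroids exposed to agents for 7 days before readout.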
# 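Wherever viability, T/C is given: 100% = DMSO vehicle control wells.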
smiles,measurement,setting,value
CC[C@@]1(O)C(=O)OCc2c1cc1n(c2=O)Cc2cc3c(CN(C)C)c(O)ccc3nc2-1,"viability, T/C",compound 0.000316 µM,109% and 97.4% and 106%
same,"viability, T/C",compound 0.001 µM,110% and 94.7% and 90.2%
same,"viability, T/C",compound 0.00316 µM,107% and 97.5% and 93.5%
same,"viability, T/C",compound 0.01 µM,100% and 103% and 93.5%
same,"viability, T/C",compound 0.0316 µM,95% and 105% and 97.2%
same,"viability, T/C",compound 0.1 µM,96.3% and 83.8% and 91.8%
same,IC50,curve of compound,> 0.1 µM
COc1cccc2c1C(=O)c1c(O)c3c(c(O)c1C2=O)CC(O)(C(=O)CO)CC3OC1CC(N)C(O)C(C)O1 (centres undefined) + Cc1ccccc1N=Nc1ccc(NC(=O)c2ccnn2C)c(C)c1,IC50,[1],5.54 µM
same,IC50,[2],5.43 µM
same,IC50,[3],9.11 µM
same,IC50,[4],8.62 µM
same,IC50,[5],4.79 µM
same,"viability, T/C",[6],102%
same,"viability, T/C",[7],97.3%
same,"viability, T/C",[8],114%
same,"viability, T/C",[9],102%
same,"viability, T/C",[10],73.3%
same,"viability, T/C",[11],25.6%
same,"viability, T/C",[12],107%
same,"viability, T/C",[13],96.8%
same,"viability, T/C",[14],99.7%
same,"viability, T/C",[15],105%
same,"viability, T/C",[16],81.4%
same,"viability, T/C",[17],14.5%
same,"viability, T/C",[18],96%
same,"viability, T/C",[19],101%
same,"viability, T/C",[20],98.6%
same,"viability, T/C",[21],95.2%
same,"viability, T/C",[22],80.4%
same,"viability, T/C",[23],47.3%
same,"viability, T/C",[24],90%
same,"viability, T/C",[25],88.8%
same,"viability, T/C",[26],105%
same,"viability, T/C",[27],96%
same,"viability, T/C",[28],87.3%
same,"viability, T/C",[29],44.3%
same,"viability, T/C",[30],85.3%
same,"viability, T/C",[31],82.2%
same,"viability, T/C",[32],95.1%
same,"viability, T/C",[33],83.5%
same,"viability, T/C",[34],71.9%
same,"viability, T/C",[35],11.7%
O=C(C=Cc1cccc(S(=O)(=O)Nc2ccccc2)c1)NO + Cc1ccccc1N=Nc1ccc(NC(=O)c2ccnn2C)c(C)c1,IC50,[1],3.11 µM
same,IC50,[2],2.29 µM
same,IC50,[3],2.14 µM
same,IC50,[4],3.28 µM
same,IC50,[5],1.24 µM
same,"viability, T/C",[6],78.6%
same,"viability, T/C",[7],88.4%
same,"viability, T/C",[8],73%
same,"viability, T/C",[9],67.7%
same,"viability, T/C",[10],49.9%
same,"viability, T/C",[11],31%
same,"viability, T/C",[12],85.4%
same,"viability, T/C",[13],78.3%
same,"viability, T/C",[14],75.9%
same,"viability, T/C",[15],62.6%
same,"viability, T/C",[16],44.8%
same,"viability, T/C",[17],26.9%
same,"viability, T/C",[18],77.1%
same,"viability, T/C",[19],75.6%
same,"viability, T/C",[20],75.5%
same,"viability, T/C",[21],70.6%
same,"viability, T/C",[22],39.5%
same,"viability, T/C",[23],25%
same,"viability, T/C",[24],79.7%
same,"viability, T/C",[25],81.2%
same,"viability, T/C",[26],75.2%
same,"viability, T/C",[27],68.9%
same,"viability, T/C",[28],50.7%
same,"viability, T/C",[29],25.8%
same,"viability, T/C",[30],75.4%
same,"viability, T/C",[31],76.9%
same,"viability, T/C",[32],64%
same,"viability, T/C",[33],56.1%
same,"viability, T/C",[34],34%
same,"viability, T/C",[35],27.9%
COc1ccc([C@@H](O)c2cc(-c3ncnc4cc(N5CCOCC5)ccc34)c(F)cc2Cl)nn1,"viability, T/C",compound 0.0316 µM,107% and 116% and 95%
same,"viability, T/C",compound 0.1 µM,105% and 102% and 106%
same,"viability, T/C",compound 0.316 µM,94.2% and 93.8% and 101%
same,"viability, T/C",compound 1 µM,93.3% and 90.2% and 84.6%
same,"viability, T/C",compound 3.16 µM,65% and 45.8% and 61.5%
same,"viability, T/C",compound 10 µM,46.3% and 26% and 26.9%
same,IC50,curve of compound,7.94 µM and 3.03 µM and 4.53 µM
CC[C@@]1(O)C(=O)OCc2c1cc1n(c2=O)Cc2cc3c(CN(C)C)c(O)ccc3nc2-1 + Cc1cncc(-c2nc(NCCc3c[nH]c4ccccc34)c3ncn(C(C)C)c3n2)c1,IC50,[1],> 0.1 µM
same,IC50,[2],> 0.1 µM
same,IC50,[3],> 0.1 µM
same,IC50,[4],> 0.1 µM
same,IC50,[5],> 0.1 µM
same,"viability, T/C","second compound 0.1 µM, first compound 0.000316 µM",100%
same,"viability, T/C","second compound 0.1 µM, first compound 0.001 µM",108%
same,"viability, T/C","second compound 0.1 µM, first compound 0.00316 µM",98.7%
same,"viability, T/C","second compound 0.1 µM, first compound 0.01 µM",94.5%
same,"viability, T/C",[6],93.1%
same,"viability, T/C",[7],97.4%
same,"viability, T/C","second compound 0.316 µM, first compound 0.000316 µM",105%
same,"viability, T/C","second compound 0.316 µM, first compound 0.001 µM",110%
same,"viability, T/C","second compound 0.316 µM, first compound 0.00316 µM",105%
same,"viability, T/C","second compound 0.316 µM, first compound 0.01 µM",98.6%
same,"viability, T/C",[12],92.8%
same,"viability, T/C",[13],90.4%
same,"viability, T/C","second compound 1 µM, first compound 0.000316 µM",101%
same,"viability, T/C","second compound 1 µM, first compound 0.001 µM",105%
same,"viability, T/C","second compound 1 µM, first compound 0.00316 µM",101%
same,"viability, T/C","second compound 1 µM, first compound 0.01 µM",89.8%
same,"viability, T/C",[18],86.5%
same,"viability, T/C",[19],84.3%
same,"viability, T/C","second compound 3.16 µM, first compound 0.000316 µM",113%
same,"viability, T/C","second compound 3.16 µM, first compound 0.001 µM",109%
same,"viability, T/C","second compound 3.16 µM, first compound 0.00316 µM",129%
same,"viability, T/C","second compound 3.16 µM, first compound 0.01 µM",101%
same,"viability, T/C",[24],107%
same,"viability, T/C",[25],84.7%
same,"viability, T/C","second compound 10 µM, first compound 0.000316 µM",136%
same,"viability, T/C","second compound 10 µM, first compound 0.001 µM",123%
same,"viability, T/C","second compound 10 µM, first compound 0.00316 µM",133%
same,"viability, T/C","second compound 10 µM, first compound 0.01 µM",123%
same,"viability, T/C",[30],123%
same,"viability, T/C",[31],114%
O=C(C=Cn1cnc(-c2cc(C(F)(F)F)cc(C(F)(F)F)c2)n1)NNc1cnccn1 + CC(CO)NC(=O)c1cc(-c2ccc(Cl)cc2)nn(-c2cnn(C)c2)c1=O,IC50,[1],> 3 µM
same,IC50,[2],> 3 µM
same,IC50,[3],> 3 µM
same,IC50,[4],> 3 µM
same,IC50,[5],> 3 µM
same,"viability, T/C","second compound 0.1 µM, first compound 0.00949 µM",108%
same,"viability, T/C","second compound 0.1 µM, first compound 0.03 µM",102%
same,"viability, T/C","second compound 0.1 µM, first compound 0.0949 µM",111%
same,"viability, T/C","second compound 0.1 µM, first compound 0.3 µM",122%
same,"viability, T/C","second compound 0.1 µM, first compound 0.949 µM",114%
same,"viability, T/C","second compound 0.1 µM, first compound 3 µM",98.3%
same,"viability, T/C","second compound 0.316 µM, first compound 0.00949 µM",86.7%
same,"viability, T/C","second compound 0.316 µM, first compound 0.03 µM",103%
same,"viability, T/C","second compound 0.316 µM, first compound 0.0949 µM",117%
same,"viability, T/C","second compound 0.316 µM, first compound 0.3 µM",115%
same,"viability, T/C","second compound 0.316 µM, first compound 0.949 µM",101%
same,"viability, T/C","second compound 0.316 µM, first compound 3 µM",90.3%
same,"viability, T/C","second compound 1 µM, first compound 0.00949 µM",94%
same,"viability, T/C","second compound 1 µM, first compound 0.03 µM",109%
same,"viability, T/C","second compound 1 µM, first compound 0.0949 µM",101%
same,"viability, T/C","second compound 1 µM, first compound 0.3 µM",123%
same,"viability, T/C","second compound 1 µM, first compound 0.949 µM",116%
same,"viability, T/C","second compound 1 µM, first compound 3 µM",94.1%
same,"viability, T/C","second compound 3.16 µM, first compound 0.00949 µM",96.7%
same,"viability, T/C","second compound 3.16 µM, first compound 0.03 µM",101%
same,"viability, T/C","second compound 3.16 µM, first compound 0.0949 µM",112%
same,"viability, T/C","second compound 3.16 µM, first compound 0.3 µM",129%
same,"viability, T/C","second compound 3.16 µM, first compound 0.949 µM",105%
same,"viability, T/C","second compound 3.16 µM, first compound 3 µM",86.1%
same,"viability, T/C","second compound 10 µM, first compound 0.00949 µM",96.3%
same,"viability, T/C","second compound 10 µM, first compound 0.03 µM",110%
same,"viability, T/C","second compound 10 µM, first compound 0.0949 µM",104%
same,"viability, T/C","second compound 10 µM, first compound 0.3 µM",116%
same,"viability, T/C","second compound 10 µM, first compound 0.949 µM",94.9%
same,"viability, T/C","second compound 10 µM, first compound 3 µM",91.3%
